Values of other authors as cited in patent US9272137B2, “Transdermal methods and systems for the delivery of anti-migraine compounds” (Teva Pharmaceuticals International GmbH, priority 2006, dated 2016).

serum elimination half-life (in vivo): 2 h
time within which most of the active drug is eliminated (majority of patients): 4 to 6 h
SMILES: CNS(=O)(=O)Cc1ccc2[nH]cc(CCN(C)C)c2c1 [Sumatriptan]
